Results on seven compounds are retold here after US20250353891A1 (MEDIMMUNE LIMITED, priority 2022, published 2025).

Test [1] concerns the target human GLP-1 receptor (hGLP-1R) (Homo sapiens, UniProt P43220). Kind of test: cAMP production (HTRF) in CHO cells expressing hGLP-1R. The format is cell-based. On the set-up: expressed in transfected cells. The note with it: for EC50: cAMP in CHO hGLP-1R cells, geometric mean, read-out: hGLP-1R EC50; for % Relative Potency Ratio: % GLP-1R activity relative to GLP-1 / % GlucR activity relative to glucagon. In outline:
(§1)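 Cells were resuspended in assay buffer at batch-optimized density, typically 1×10^5 cells/mL for hGLP-1R and 2×10^5 cells/mL for hGCGR. After 30 min incubation at room temperature with compound, cAMP was measured by two-step HTRF. EC50 values came from 4-parameter logistic fits of % Delta F.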
(In general: cAMP levels reflect the balance of adenylyl cyclase and phosphodiesterase activity.)

Test [2] addresses human glucagon receptor (hGCGR) (Homo sapiens, UniProt P47871). Nature of the test: cAMP production (HTRF) in CHO cells expressing hGCGR. On the set-up: expressed in transfected cells. The format is cell-based. The note with it: cAMP in CHO hGCGR cells, geometric mean, read-out: hGluc-R EC50. An outline of the steps:
as §1

The mark [3] stands for this setting: Table 6, peptides modified at position 17.
Where [4] appears, read: Table 7, peptides modified at position 20.

Each structure is given as a SMILES string. Read-outs that look alike come from different tables or passages of the source. Starred links: 1 amine or outer side, 2 acyl side, 3 side chain; linkers in the order of their positions; H or OH if unused. Non-standard residues stand in square brackets, D forms with d. Residues, ends and D or L forms follow the SMILES beside them. Groups on a side chain read outwards from the residue. *: point of attachment. C18 diacid = O=C(O)CCCCCCCCCCCCCCCCC(=O)*; γGlu = O=C(O)[C@H](CCC(=O)[*:2])N[*:1]; Stearoyl = CCCCCCCCCCCCCCCCCC(=O)*; αMeF = C[C@](N)(Cc1ccccc1)C(=O)O; Myristoyl = CCCCCCCCCCCCCC(=O)*; PEG4 = NCCOCCOCCOCCOCCC(=O)O; αMeS = C[C@](N)(CO)C(=O)O; PEG2 = NCCOCCOCCC(=O)O; AEEA = NCCOCCOCC(=O)O; Aib = CC(C)(N)C(=O)O

What is called EC50 is the concentration needed to bring the measured effect to its halfway point.

human glucagon receptor (hGCGR), sequence (P47871 26-477): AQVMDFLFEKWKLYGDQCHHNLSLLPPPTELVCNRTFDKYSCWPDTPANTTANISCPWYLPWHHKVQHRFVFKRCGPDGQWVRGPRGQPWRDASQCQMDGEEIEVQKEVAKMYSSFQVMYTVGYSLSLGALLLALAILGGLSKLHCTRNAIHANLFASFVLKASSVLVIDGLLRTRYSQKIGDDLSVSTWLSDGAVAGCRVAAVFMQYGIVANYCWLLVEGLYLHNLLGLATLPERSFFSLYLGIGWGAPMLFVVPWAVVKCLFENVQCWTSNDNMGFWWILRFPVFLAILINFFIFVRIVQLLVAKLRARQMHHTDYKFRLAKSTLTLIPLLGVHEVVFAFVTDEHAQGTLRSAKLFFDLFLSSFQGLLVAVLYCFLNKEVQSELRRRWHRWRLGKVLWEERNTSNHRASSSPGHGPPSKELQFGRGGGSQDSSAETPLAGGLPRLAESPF
human GLP-1 receptor (hGLP-1R), sequence (P43220 24-463): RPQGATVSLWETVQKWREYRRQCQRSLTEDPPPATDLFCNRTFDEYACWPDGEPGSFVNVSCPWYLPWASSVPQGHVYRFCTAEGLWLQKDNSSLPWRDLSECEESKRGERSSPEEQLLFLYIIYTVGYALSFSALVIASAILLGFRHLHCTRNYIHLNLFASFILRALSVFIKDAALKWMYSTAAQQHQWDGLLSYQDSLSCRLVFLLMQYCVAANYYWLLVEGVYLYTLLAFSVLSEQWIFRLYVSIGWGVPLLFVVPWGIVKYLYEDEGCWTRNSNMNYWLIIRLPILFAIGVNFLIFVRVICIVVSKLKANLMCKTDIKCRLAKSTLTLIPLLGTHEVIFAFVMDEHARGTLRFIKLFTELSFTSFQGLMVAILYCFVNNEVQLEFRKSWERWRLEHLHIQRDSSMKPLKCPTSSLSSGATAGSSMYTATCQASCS

With `CC(C)C[C@H](NC(=O)[C@H](CC(C)C)NC(=O)[C@H](Cc1c[nH]c2ccccc12)NC(=O)[C@H](CCCNC(=N)N)NC(=O)[C@@H](NC(=O)[C@H](Cc1ccccc1)NC(=O)[C@H](CC(=O)O)NC(=O)[C@H](CCC(N)=O)NC(=O)[C@H](C)NC(=O)[C@H](CCCNC(=N)N)NC(=O)[C@H](CCCCNC(=O)COCCOCCNC(=O)COCCOCCNC(=O)CC[C@H](NC(=O)CCCCCCCCCCCCCCCCC(=O)O)C(=O)O)NC(=O)[C@H](CO)NC(=O)[C@H](CC(=O)O)NC(=O)[C@H](CC(C)C)NC(=O)[C@](C)(Cc1ccccc1)NC(=O)[C@H](CCCCN)NC(=O)[C@H](CO)NC(=O)[C@@H](NC(=O)[C@H](CC(=O)O)NC(=O)[C@H](CO)NC(=O)[C@@H](NC(=O)[C@H](Cc1ccccc1)NC(=O)[C@@H](NC(=O)CNC(=O)[C@H](CCC(N)=O)NC(=O)C(C)(C)NC(=O)[C@@H](N)Cc1c[nH]cn1)[C@@H](C)O)[C@@H](C)O)C(C)C)C(C)C)C(=O)N[C@@H](C)C(=O)NC(C)(C)C(=O)NCC(=O)O` [Peptide 180] (H-H[Aib]QGTFTSDVSK[αMeF]LDSK([AEEA-AEEA-γGlu-C18 diacid])RAQDFVRWLLA[Aib]G-OH; N-terminus assumed), the EC50 came to 0.0244 nM in test [1] (setting [3]) and 0.0717 nM in test [2] (setting [3]). Besides, the “% Relative Potency Ratio” value in test [1] (Table 6) came out at 5.8.
With `CCCCCCCCCCCCCC(=O)N[C@@H](CCC(=O)N[C@@H](CCC(=O)NCCOCCOCCC(=O)NCCOCCOCCC(=O)NCCCC[C@H](NC(=O)[C@H](CO)NC(=O)[C@H](CC(=O)O)NC(=O)[C@H](CC(C)C)NC(=O)[C@@H](NC(=O)[C@H](CCCCN)NC(=O)[C@H](CO)NC(=O)[C@@H](NC(=O)[C@H](CC(=O)O)NC(=O)[C@H](CO)NC(=O)[C@@H](NC(=O)[C@](C)(Cc1ccccc1)NC(=O)[C@H](CO)NC(=O)CNC(=O)[C@H](CCC(N)=O)NC(=O)[C@](C)(CO)NC(=O)[C@@H](N)Cc1c[nH]cn1)[C@@H](C)O)C(C)C)[C@@H](C)CC)C(=O)N[C@@H](C)C(=O)N[C@@H](C)C(=O)N[C@@H](CCC(N)=O)C(=O)N[C@@H](CC(=O)O)C(=O)N[C@@](C)(Cc1ccccc1)C(=O)N[C@H](C(=O)N[C@@H](CCC(N)=O)C(=O)NC(C)(C)C(=O)N[C@H](C(=O)N[C@H](C(=O)N[C@@H](CC(N)=O)C(=O)N[C@H](C(N)=O)[C@@H](C)O)[C@@H](C)CC)[C@@H](C)CC)C(C)C)C(=O)O)C(=O)O` [Peptide 132] (H-H[αMeS]QGS[αMeF]TSDVSKILDSK([PEG2-PEG2-γGlu-γGlu-Myristoyl])AAQD[αMeF]VQ[Aib]IINT-NH2; N-terminus assumed), the “% Relative Potency Ratio” value in test [1] (Table 6) was 71.5. Further, the EC50 in test [2] (setting [3]) was 0.0343 nM.
Regarding `CC(C)C[C@H](NC(=O)[C@H](CC(=O)O)NC(=O)[C@H](CC(C)C)NC(=O)[C@](C)(Cc1ccccc1)NC(=O)[C@H](CCCCN)NC(=O)[C@H](CO)NC(=O)[C@@H](NC(=O)[C@H](CC(=O)O)NC(=O)[C@H](CO)NC(=O)[C@@H](NC(=O)[C@H](Cc1ccccc1)NC(=O)[C@@H](NC(=O)CNC(=O)[C@H](CCC(N)=O)NC(=O)C(C)(C)NC(=O)[C@@H](N)Cc1c[nH]cn1)[C@@H](C)O)[C@@H](C)O)C(C)C)C(=O)N[C@@H](CCCCNC(=O)COCCOCCNC(=O)COCCOCCNC(=O)CC[C@H](NC(=O)CC[C@H](NC(=O)CCCCCCCCCCCCCCCCC(=O)O)C(=O)O)C(=O)O)C(=O)N[C@@H](CCCNC(=N)N)C(=O)N[C@@H](C)C(=O)N[C@@H](CCC(N)=O)C(=O)N[C@@H](CC(=O)O)C(=O)N[C@@H](Cc1ccccc1)C(=O)N[C@H](C(=O)N[C@@H](CCC(N)=O)C(=O)N[C@@H](Cc1c[nH]c2ccccc12)C(=O)N[C@@H](CC(C)C)C(=O)N[C@@H](CC(C)C)C(=O)NC(C)(C)C(=O)N[C@H](C(=O)O)[C@@H](C)O)C(C)C` [Peptide 465] (H-H[Aib]QGTFTSDVSK[αMeF]LDLK([AEEA-AEEA-γGlu-γGlu-C18 diacid])RAQDFVQWLL[Aib]T-OH; N-terminus assumed), the EC50 in test [1] (setting [3]) worked out at 0.485 nM; in test [2] (setting [3]) it was 0.436 nM. Also, the “% Relative Potency Ratio” value in test [1] (Table 6) stood at 1.8.
For `CCCCCCCCCCCCCCCCCC(=O)N[C@@H](CCC(=O)NCCOCCOCCC(=O)NCCOCCOCCC(=O)NCCCC[C@H](NC(=O)[C@H](CO)NC(=O)[C@H](CC(=O)O)NC(=O)[C@H](CC(C)C)NC(=O)[C@@H](NC(=O)[C@H](CCCCN)NC(=O)[C@H](CO)NC(=O)[C@@H](NC(=O)[C@H](CC(=O)O)NC(=O)[C@H](CO)NC(=O)[C@@H](NC(=O)[C@](C)(Cc1ccccc1)NC(=O)[C@H](CO)NC(=O)CNC(=O)[C@H](CCC(N)=O)NC(=O)[C@](C)(CO)NC(=O)[C@@H](N)Cc1c[nH]cn1)[C@@H](C)O)C(C)C)[C@@H](C)CC)C(=O)N[C@@H](C)C(=O)N[C@@H](C)C(=O)N[C@@H](CCC(N)=O)C(=O)N[C@@H](CC(=O)O)C(=O)N[C@@](C)(Cc1ccccc1)C(=O)N[C@H](C(=O)N[C@@H](CCC(N)=O)C(=O)NC(C)(C)C(=O)N[C@H](C(=O)N[C@H](C(=O)N[C@@H](CC(N)=O)C(=O)N[C@H](C(N)=O)[C@@H](C)O)[C@@H](C)CC)[C@@H](C)CC)C(C)C)C(=O)O` [Peptide 133] (H-H[αMeS]QGS[αMeF]TSDVSKILDSK([PEG2-PEG2-γGlu-Stearoyl])AAQD[αMeF]VQ[Aib]IINT-NH2; N-terminus assumed), in that order: 0.00106 nM, 0.03 nM and 55.9.
On the same counts, the results for `CC(C)C[C@H](NC(=O)[C@H](Cc1c[nH]c2ccccc12)NC(=O)[C@H](CCCNC(=N)N)NC(=O)[C@@H](NC(=O)[C@H](Cc1ccccc1)NC(=O)[C@H](CC(=O)O)NC(=O)[C@H](CCC(N)=O)NC(=O)[C@H](C)NC(=O)[C@H](CCCNC(=N)N)NC(=O)[C@H](CCCCNC(=O)COCCOCCNC(=O)COCCOCCNC(=O)CC[C@H](NC(=O)CCCCCCCCCCCCCCCCC(=O)O)C(=O)O)NC(=O)[C@H](CO)NC(=O)[C@H](CC(=O)O)NC(=O)[C@H](CC(C)C)NC(=O)[C@](C)(Cc1ccccc1)NC(=O)[C@H](CCCCN)NC(=O)[C@H](CO)NC(=O)[C@@H](NC(=O)[C@H](CC(=O)O)NC(=O)[C@H](CO)NC(=O)[C@@H](NC(=O)[C@H](Cc1ccccc1)NC(=O)[C@@H](NC(=O)CNC(=O)[C@H](CCC(N)=O)NC(=O)C(C)(C)NC(=O)[C@@H](N)Cc1c[nH]cn1)[C@@H](C)O)[C@@H](C)O)C(C)C)C(C)C)C(=O)N[C@@H](CC(C)C)C(=O)NC(C)(C)C(=O)N[C@H](C(=O)N[C@@H](CCC(=O)O)C(=O)O)[C@@H](C)O` [Peptide 39] (H-H[Aib]QGTFTSDVSK[αMeF]LDSK([AEEA-AEEA-γGlu-C18 diacid])RAQDFVRWLL[Aib]TE-OH; N-terminus assumed) are 0.0761 nM, 0.194 nM and 5.0.
For the compound `CC(C)C[C@H](NC(=O)[C@H](Cc1c[nH]c2ccccc12)NC(=O)[C@H](CCC(N)=O)NC(=O)[C@@H](NC(=O)[C@H](Cc1ccccc1)NC(=O)[C@H](CC(=O)O)NC(=O)[C@H](CCCNC(=N)N)NC(=O)[C@H](C)NC(=O)[C@H](CCCNC(=N)N)NC(=O)[C@H](CCCCNC(=O)COCCOCCNC(=O)COCCOCCNC(=O)CC[C@H](NC(=O)CC[C@H](NC(=O)CCCCCCCCCCCCCCCCCCC(=O)O)C(=O)O)C(=O)O)NC(=O)[C@@H](NC(=O)[C@H](CC(=O)O)NC(=O)[C@H](CC(C)C)NC(=O)[C@](C)(Cc1ccccc1)NC(=O)[C@H](CCCCN)NC(=O)[C@H](CO)NC(=O)[C@@H](NC(=O)[C@H](CC(=O)O)NC(=O)[C@H](CO)NC(=O)[C@@H](NC(=O)[C@H](Cc1ccccc1)NC(=O)[C@@H](NC(=O)CNC(=O)[C@H](CCC(N)=O)NC(=O)C(C)(C)NC(=O)[C@@H](N)Cc1c[nH]cn1)[C@@H](C)O)[C@@H](C)O)C(C)C)[C@@H](C)O)C(C)C)C(=O)N[C@@H](CC(C)C)C(=O)N[C@@H](CCC(=O)O)C(=O)NC(C)(C)C(=O)NCC(=O)O` [Peptide 449], the EC50 came to 0.207 nM in test [1] (setting [3]) and 0.242 nM in test [2] (setting [3]). Moreover, the “% Relative Potency Ratio” value in test [1] (Table 6) is given as 2.3.
On to `CC[C@H](C)[C@H](NC(=O)C(C)(C)NC(=O)[C@H](CCC(N)=O)NC(=O)[C@@H](NC(=O)[C@](C)(Cc1ccccc1)NC(=O)[C@H](CC(=O)O)NC(=O)[C@H](CCCCNC(=O)CCOCCOCCOCCOCCNC(=O)CC[C@H](NC(=O)CCCCCCCCCCCCCCCCC(=O)O)C(=O)O)NC(=O)[C@H](C)NC(=O)[C@H](C)NC(=O)[C@H](CCCNC(=N)N)NC(=O)[C@H](CO)NC(=O)[C@H](CC(=O)O)NC(=O)[C@H](CC(C)C)NC(=O)[C@](C)(Cc1ccccc1)NC(=O)[C@H](CCCCN)NC(=O)[C@H](CO)NC(=O)[C@@H](NC(=O)[C@H](CC(=O)O)NC(=O)[C@H](CO)NC(=O)[C@@H](NC(=O)[C@](C)(Cc1ccccc1)NC(=O)[C@H](CO)NC(=O)CNC(=O)[C@H](Cc1c[nH]cn1)NC(=O)C(C)(C)NC(=O)[C@@H](N)Cc1c[nH]cn1)[C@@H](C)O)C(C)C)C(C)C)C(=O)N[C@@H](C)C(=O)N[C@@H](CC(N)=O)C(=O)N[C@H](C(N)=O)[C@@H](C)O` [Peptide 261] (H-H[Aib]HGS[αMeF]TSDVSK[αMeF]LDSRAAK([PEG4-γGlu-C18 diacid])D[αMeF]VQ[Aib]IANT-NH2; N-terminus assumed), for which the results for the EC50 in test [1] (setting [4]) and in test [2] (setting [4]) were 0.0162 nM and 0.0294 nM, respectively. In addition, the “% Relative Potency Ratio” value in test [1] (Table 7) is 3.6.
